Experimental data as given in patent US20220117958A1, “COMPOSITIONS AND METHODS FOR INHIBITING ACSS2” (THE TRUSTEES OF THE UNIVERSITY OF PENNSYLVANIA, priority 2018, published 2022).
In brackets after ≈: the same amount, converted by molar mass. Several values for one entry are separate records, joined by “and”; a condition that tells them apart may be missing. Equal values may be shown once. Read-outs that look alike come from different tables or passages of the source. Marks after values point to notes of the source that are not given here.

Experiments:
[1] = Turbidity-based aqueous solubility; format: physicochemical; details: aqueous solution (composition not given), kinetic from dmso stock, read-out: highest soluble concentration
Text: (§1) Table 20 provides results of in vitro and in vivo pharmacokinetics performed for each of the represented compounds.

[2] = Protein binding via Rapid Equilibrium Dialysis - plasma; format: in vitro ADME; details: Rat (SD) plasma, 2 μM
Text: as §1

[3] = Microsomal stability assay (half-life), human; format: in vitro ADME; details: Human microsomes, read-out: Microsomal stability T1/2
Text: as §1

[4] = Microsomal stability assay (half-life), mouse; format: in vitro ADME; details: Mouse (CD1) microsomes, read-out: Microsomal stability T1/2
Text: as §1

[5] = Microsomal stability assay (half-life), rat; format: in vitro ADME; details: Rat (SD) microsomes, read-out: Microsomal stability T1/2
Text: as §1

[6] = In vivo PK, oral gavage, plasma; design: species or system Rat (SD); details: PO 5 mg/kg; for Plasma concentration, mean: Rat (SD), BQL = below quantitation limit (1.00 ng/mL); for Plasma concentration, individual animal: Rat, BQL limit 1.00 ng/mL
Text: as §1
(§2) Tables 4 and 5 depict the summary of rat plasma sample concentrations after administration of ADG I-204. FIG. 6 provides a summary of rat plasma and brain concentrations.

[7] = In vivo PK, IV dose, plasma; design: species or system Rat (SD); details: for Plasma concentration, mean / Plasma concentration, individual animal: IV 1 mg/kg, listed as ADG I-204, 1 mg/kg
Text: as §1, §2

[8] = In vivo PK, IV dose, Terminal - brain (brain availability); design: species or system Rat (SD); details: for Brain concentration, mean / Brain concentration, individual animal: IV 1 mg/kg; for Brain concentration, individual animal: Rat
Experimental: Table 3 and FIG. 5 depict the brain availability of ADG I-204, ADG I-205, ADG I-206, and ADG I-207 after IV administration of 1 mg/kg dose.

H3K9ac = test: Western blot, differentiated CAD cell lysates, H3K9ac levels; format: cell-based; details: differentiated CAD cells, DMSO = 100.00%
Text: as §1

solubility [1]: 2 µM (≈ 0.845 µg/mL) | Protein binding, plasma: % Protein free [2]: 0.1994 % Protein free | half-life at 2 μM [3]: 1.16 h | half-life at 2 μM [4]: 5.02 h | half-life at 2 μM [5]: 3.92 h | Plasma concentration, mean ([6]; 0.25 hr): BQL | Plasma concentration, mean ([6]; 0.5 hr): BQL | Plasma concentration, mean ([6]; 1 hr): BQL | Plasma concentration, mean ([6]; 4 hr): BQL | Plasma concentration, mean ([6]; 8 hr): BQL | Plasma concentration, mean ([6]; 24 hr): BQL | Plasma concentration, individual animal ([6]; 0.250 hr): BQL | Plasma concentration, individual animal ([6]; 0.500 hr): BQL | Plasma concentration, individual animal ([6]; 1.00 hr): BQL | Plasma concentration, individual animal ([6]; 4.00 hr): BQL | Plasma concentration, individual animal ([6]; 8.00 hr): BQL | Plasma concentration, individual animal ([6]; 24.0 hr): BQL | Plasma concentration, mean ([7]; Rat (SD), 4 hr, terminal): 4 ng/mL | Plasma concentration, mean ([7]; Rat (SD), 8 hr, terminal): 4 ng/mL | Plasma concentration, mean ([7]; Rat (SD), 24 hr, terminal, BQL limit 1.00 ng/mL (ADG I-205: 2.00 ng/mL)): 2 ng/mL | Plasma concentration, individual animal ([7]; Rat, 0.0830 hr, terminal, third animal received only 70% of the test article): 2340 ng/mL and 1170*** ng/mL | Plasma concentration, individual animal ([7]; Rat, 0.500 hr, not terminal (animals 4, 5 and 6)): 4190** ng/mL and 357 ng/mL and 634 ng/mL | Plasma concentration, individual animal ([7]; Rat, 1.00 hr, terminal): 278 ng/mL and 103 ng/mL and 279 ng/mL | Plasma concentration, individual animal ([7]; Rat, 4.00 hr, terminal, BQL limit 1.00 ng/mL (ADG I-205: 2.00 ng/mL)): 4.35 ng/mL | Plasma concentration, individual animal ([7]; Rat, 8.00 hr, terminal, BQL limit 1.00 ng/mL (ADG I-205: 2.00 ng/mL)): 2.97 ng/mL and 5.93 ng/mL | Plasma concentration, individual animal ([7]; Rat, 24.0 hr, terminal, BQL limit 1.00 ng/mL (ADG I-205: 2.00 ng/mL)): 1.09 ng/mL and BQL | concentration at 0.083 h ([7]; SD, rat, plasma, iv, 1 mg/kg, Rat (SD), 0.083 hr, terminal, read-out: Plasma concentration, mean): 1910 ng/mL | concentration at 0.5 h ([7]; SD, rat, plasma, iv, 1 mg/kg, Rat (SD), 0.500 hr, not a terminal time point (animals 4, 5 and 6)): 1730 ng/mL | concentration at 1 h ([7]; SD, rat, plasma, iv, 1 mg/kg, Rat (SD), 1 hr, terminal, read-out: Plasma concentration, mean): 220 ng/mL | concentration at 4 h ([7]; SD, rat, plasma, iv, 1 mg/kg, Rat (SD), 4 hr, terminal, read-out: Plasma concentration, mean): 4.49 ng/mL | concentration at 8 h ([7]; SD, rat, plasma, iv, 1 mg/kg, Rat (SD), 8 hr, terminal, read-out: Plasma concentration, mean): 4.27 ng/mL | concentration at 24 h ([7]; SD, rat, plasma, iv, 1 mg/kg, Rat (SD), 24 hr, terminal, BQL limit 1.00 ng/mL (ADG I-205: 2.00 ng/mL), read-out: Plasma concentration, mean): 1.52 ng/mL | concentration at 0.083 h ([7]; SD, rat, plasma, iv, 1 mg/kg, Rat, 0.0830 hr, terminal, third animal received only 70% of the test article, read-out: Plasma concentration, individual animal): 2220 ng/mL | concentration at 4 h ([7]; SD, rat, plasma, iv, 1 mg/kg, Rat, 4.00 hr, terminal, BQL limit 1.00 ng/mL (ADG I-205: 2.00 ng/mL), read-out: Plasma concentration, individual animal): 8.63 ng/mL | concentration at 8 h ([7]; SD, rat, plasma, iv, 1 mg/kg, Rat, 8.00 hr, terminal, BQL limit 1.00 ng/mL (ADG I-205: 2.00 ng/mL), read-out: Plasma concentration, individual animal): 3.92 ng/mL | concentration at 24 h ([7]; SD, rat, plasma, iv, 1 mg/kg, Rat, 24.0 hr, terminal, BQL limit 1.00 ng/mL (ADG I-205: 2.00 ng/mL), read-out: Plasma concentration, individual animal): 1.95 ng/mL | Brain concentration, mean ([8]; Rat (SD), 4 hr, BQL limit 10.0 ng/g (204, 206), 20.0 ng/g (205, 207)): BQL | Brain concentration, mean ([8]; Rat (SD), 8 hr, BQL limit 10.0 ng/g (204, 206), 20.0 ng/g (205, 207)): BQL | Brain concentration, mean ([8]; Rat (SD), 24 hr, BQL limit 10.0 ng/g (204, 206), 20.0 ng/g (205, 207)): BQL | Brain concentration, individual animal ([8]; 0.0830 hr, third animal received only 70% of the test article, listed as ADG I-204, 1 mg/kg): 637 ng/g and 583 ng/g and 242*** ng/g | Brain concentration, individual animal ([8]; 1.00 hr, listed as ADG I-204, 1 mg/kg): 119 ng/g and 60.3 ng/g and 149 ng/g | Brain concentration, individual animal ([8]; 4.00 hr, BQL limit 10.0 ng/g (204, 206), 20.0 ng/g (205, 207)): BQL | Brain concentration, individual animal ([8]; 8.00 hr, BQL limit 10.0 ng/g (204, 206), 20.0 ng/g (205, 207)): BQL | Brain concentration, individual animal ([8]; 24.0 hr, BQL limit 10.0 ng/g (204, 206), 20.0 ng/g (205, 207)): BQL | concentration at 0.083 h ([8]; SD, rat, brain, iv, 1 mg/kg, Rat (SD), 0.083 hr): 487 ng/g | concentration at 1 h ([8]; SD, rat, brain, iv, 1 mg/kg, Rat (SD), 1 hr, read-out: Brain concentration, mean): 109 ng/g
SMILES: CCCCCNC(=O)Nc1ccc2nc(-c3cccs3)c(-c3cccs3)nc2c1 [ADG-204]
H3K9ac levels normalized to H3 and DMSO control (H3K9ac; 1 uM): 22.30% | H3K9ac levels normalized to H3 and DMSO control (H3K9ac; 5 uM): 13.48% | H3K9ac levels normalized to H3 and DMSO control (H3K9ac; 10 uM): 8.32% | H3K9ac levels normalized to H3 and DMSO control (H3K9ac; 20 uM): 17.03% | H3K9ac levels normalized to H3 and DMSO control (H3K9ac; 50 uM): 9.64% | H3K9ac levels normalized to H3 and DMSO control (H3K9ac; 100 uM): 24.00%
